From PMC10419416, “Fighting Pseudomonas aeruginosa Infections: Antibacterial and Antibiofilm Activity of D-Q53 CecB, a Synthetic Analog of a Silkworm Natural Cecropin B Variant” (International Journal of Molecular Sciences, 2023)
Non-standard residues stand in square brackets, D forms with d. Residues, ends and D or L forms follow the SMILES beside them. No end group written: not given here.

What was measured:
[1] = system: linearized DNA (pIVEX 2.3d plasmid); assay: Gel retardation assay, in vitro interaction with DNA; type: binding; conditions: 100 ng DNA, 100-500 ng peptide, RT 1 h, 1% agarose gel; all tested conditions; three experiments
Method: One hundred ng of linearized DNA (pIVEX 2.3d plasmid) were incubated with increasing concentrations of the L- or D-peptides (0, 100, 150, 175, 200, 250, 275, 300, 350, 400, 450, 500 ng) at RT for 1 h. Samples were run into a 1% agarose gel in TAE buffer at 50 V and visualized in a Gel Doc X3+ (Biorad, Hercules, CA, USA). DNA band intensities were measured using the Image Lab software 6.1 (Biorad, Hercules, CA, USA). The band intensity reduction was calculated as the ratio between the band intensity in the presence of peptide over that of the untreated DNA. To compare the DNA binding activities of L- and D- peptides, for each peptide amount, we determined the ratio between the band intensity reduction with D-Q53 CecB and that with L-Q53 CecB. Three experiments have been performed.

[2] = system: P. aeruginosa biofilms (ATCC 25668); assay: Confocal live/dead staining of biofilm-embedded cells; type: cell-based, Pseudomonas aeruginosa; conditions: 1 h treatment with 1 MIC (2.2 µM) of 24 h-old biofilm; SYTO 9 / Propidium Iodide
Method: Bacteria cells (1 × 10^6 cells/mL) were grown in Permanox four-wells chamber slide systems (1.8 cm^2/well; Nunc® Lab-Tek® Chamber Slide™ system) at 37 °C for 24 h without agitation to allow biofilm formation. After washing, biofilms were treated with 2.2 μM L- or D-Q53 CecB peptide for 1 h at 37 °C without agitation. Negative controls, treated with LB only, were followed in parallel.
To visualize live/dead bacteria, samples were stained with 12. 5 μM SYTO™ 9 (Thermo Fisher Scientific) (green, total cells) and 70 μM Propidium Iodide (Merck) (red, dead cells) for 30 min. After washing with PBS, samples were mounted in VECTASHIELD® mounting medium (Vector Laboratories) and observed using a Leica TCS SP5 II confocal microscope, using a ×63 oil immersion objective and a digital magnification of ×3. Optical sections (Z-series) were taken at 0.13 μm intervals. For each condition, experiments were repeated at least twice.
To detect bacteria (green), excitation and emission wavelengths were 488 and 500–530 nm, respectively. EPS was visualized using a 405 nm wavelength for excitation and 413–480 nm for emission (blue); to detect proteins or Propidium Iodide (red), a 543 nm wavelength for excitation and 590–610 nm for emission were used. Post-acquisition analyses were performed with Fiji (http://fiji.sc/wiki/index.php, downloaded on 4 April 2022). […]

trypsin = conditions: cited from earlier work
From the text: Recently, we characterized Q53 CecB, a natural CecB variant derived from the silkworm Bombyx mori. […] Additionally, Q53 CecB maintains an anti-Pseudomonas activity at a high saline concent ...

[3] = system: T1, human neutrophil elastase; assay: Enzymatic digestion with human neutrophil elastase, RP-HPLC; type: in vitro ADME; conditions: human, isolated enzyme elastase, pH 7.5
T1 construct: purchased Merck
Method: L- and D-Q53 CecB peptides, as well as the human LL-37 peptide (Merck, Burlington, MA, USA), were dissolved in 10 mM Tris-HCl, pH 7.5, at a final concentration of 1 mg/mL. Subsequently, 120 μL of each peptide solution were incubated at 37 °C with 20 U of human leukocyte elastase (Merck) or P. aeruginosa elastase (Elastin Products Company, Owensville, MO, USA) and 5 μL of 10 mM Tris-HCl, pH 7.5. At given time intervals (30, 60, 120, and 300 min), a volume corresponding to 30 μg of each peptide was diluted in 70 μL of 1% trifluoroacetic acid (TFA) to stop the reaction. Peptide suspensions,v without any enzyme (undigested controls), were processed in parallel. Each solution was analyzed by RP-HPLC, using a Phenomenex LC C18 analytical column (300 Å, […], 250 × 4.6 mm; Phenomenex, Torrance, CA, USA) and a Widepore C18 security guard cartridge (4 × 3.0 mm; Phenomenex, Torrance, CA, USA), in a 30 min-linear Acetonitrile (ACN) gradient (from 0% to 40% for L- and D-Q53 CecB peptides; from 20% to 60% for LL-37). A Waters Alliance 2695 Separations Module connected to a 996 PDA (Waters, Milford, MA, USA) was employed for RP-HPLC.

[4] = system: P. aeruginosa PAO1-L strain; assay: microbe, parasite or virus in culture; type: cell-based, Pseudomonas aeruginosa; conditions: value between parentheses, 24 h, 37 °C, plating on LBA
Method: (§1) The following strains were used: P. aeruginosa ATCC 27853, ATCC 25668, and PAO1-L (Lausanne subline). All strains were grown at 37 °C in Luria Bertani (LB) medium or in Luria Bertani Agar (LBA) plates.
(§2) The antibacterial activities of L- and D-Q53 CecB were evaluated by determining (i) the MIC and (ii) the MBC. Tobramycin (Merck) was used as an antibiotic control. (i) An overnight (ON) bacterial culture was diluted to 1 × 10^6 cells/mL in LB medium. 50 µL/well were seeded in sterile polypropylene 96-well plates (Corning, Corning, NY, USA) and added with 50 µL LB medium, containing serial dilutions of each compound (final concentrations of L- and D-Q53 CecB peptides from 1.1 to 35.2 µM; final concentrations of tobramycin from 0.26 to 17 μM; each condition in triplicate). Microbial suspensions in the growing medium (positive control) and wells with only the medium (negative controls) were processed in parallel. Plates were incubated 24 h at 37 °C with agitation (300 rpm), and the absorbance was measured at 600 nm in a microplate reader. The MIC was considered as the lowest concentration determining a delta optical density at 600 nm (ΔOD600) equal to 0 ± 0.05. The ΔOD600 was determined by subtracting the OD600 recorded at time 0 from that obtained after 24 h. Each experiment was performed at least three times. […] For each sample, 100 μL of 1:10, 1:100, and 1:1000 dilutions were plated on LBA plates, and colonies were counted after 24 h at 37 °C. […] Each experiment was performed at least twice.

[5] = system: P. aeruginosa ATCC 25668, ATCC 27853, and PAO1-L strains; assay: microbe, parasite or virus in culture; type: cell-based, Pseudomonas aeruginosa; conditions: LB medium, 24 h, 37 °C, OD600; same value for all three strains; triplicate, at least three experiments
Method: as §1, §2

For `CC[C@@H](C)[C@@H](NC(=O)[C@@H](C)NC(=O)[C@@H](CCCCN)NC(=O)[C@@H](C)NC(=O)[C@@H](CO)NC(=O)CNC(=O)[C@@H](CC(C)C)NC(=O)[C@H](NC(=O)[C@@H](CCC(N)=O)NC(=O)[C@H](NC(=O)[C@@H](C)NC(=O)[C@H]1CCCN1C(=O)CNC(=O)[C@@H](C)NC(=O)[C@@H](CCCCN)NC(=O)[C@H](NC(=O)[C@H](NC(=O)CNC(=O)[C@@H](CC(=O)O)NC(=O)[C@@H](CCCNC(=N)N)NC(=O)[C@H](NC(=O)[C@@H](CC(N)=O)NC(=O)[C@@H](CCCNC(=N)N)NC(=O)CNC(=O)[C@@H](CCSC)NC(=O)[C@@H](CCCCN)NC(=O)[C@@H](CCC(=O)O)NC(=O)[C@H](NC(=O)[C@@H](CCCCN)NC(=O)[C@@H](CCCCN)NC(=O)[C@@H](Cc1ccccc1)NC(=O)[C@H](NC(=O)[C@@H](CCCCN)NC(=O)[C@@H](Cc1c[nH]c2ccccc12)NC(=O)[C@H](N)CCCNC(=N)N)[C@H](C)CC)[C@H](C)CC)[C@H](C)CC)[C@H](C)CC)C(C)C)[C@H](C)CC)C(C)C)C(N)=O` [D-Q53 CecB] (H-[dR][dW][dK][dI][dF][dK][dK][dI][dE][dK][dM]G[dR][dN][dI][dR][dD]G[dI][dV][dK][dA]G[dP][dA][dI][dQ][dV][dL]G[dS][dA][dK][dA][dI]-NH2; N-terminus and C-terminus assumed), the “ratio between the DNA band intensities for D- and L-Q53 CecB” value [1] was ~ 1 and the “red/green (dead/total) cell ratio vs untreated controls” value [2] was “Significant increments”.
For “RWKIFKKIEKMGRNIRDGIVKAGPAIQVLGSAKAI-NH2 [L-Q53 CecB]”, the “red/green (dead/total) cell ratio vs untreated controls” value [2] is listed as “Significant increments”, the “antibacterial activity after trypsin treatment” value (trypsin) is listed as “lost its antibacterial activity” and the remaining at 5 h, 1 mg/mL [3] is listed as 0.3%. It also gave an MBC [4] of 4.40 µM and an MIC [5] of 2.20 µM.
